# Several values for one entry are separate records, joined by “and”; a condition that tells them apart may be missing. Equal values may be shown once.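 Where inhibition never reached the appropriate level, the endpoint shown equals the highest concentration tested. Otherwise, values were interpolated linearly from a five-concentration, 48-hour dose response in 96-well plates. At the GI50, growth is halved.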 Activity calls are given as the source filed them. Cut-off read from the data, not from the text of the source: active = GI50 up to about 1.1 µM and inactive = higher.
# Experiments:
# Test in all cases: inhibition of tumour cell growth, NCI panel, 48 h
# [1] = test system: HOP-18
# [2] = test system: HL-60
# [3] = test system: NCI-H23
# [4] = test system: RXF 393
# [5] = test system: UO-31
# [6] = test system: U-251
# [7] = test system: SNB-78
# [8] = test system: KM-20L2
# [9] = test system: MCF7
# [10] = test system: M14
# [11] = test system: LOX IMVI
# [12] = test system: TK-10
# [13] = test system: OVCAR-3
# [14] = test system: OVCAR-8
# [15] = test system: UACC-62
# [16] = test system: MDA-MB-231
# [17] = test system: HCT-116
# [18] = test system: K562
# [19] = test system: DLD-1
# [20] = test system: SK-OV-3
# [21] = test system: KM12
# [22] = test system: NCI-H226
# [23] = test system: BT-549
# [24] = test system: SF-295
# [25] = test system: COLO 205
# [26] = test system: HOP-92
# [27] = test system: XF498
# [28] = test system: MDA-MB-435
# [29] = test system: PC-3
# [30] = test system: RPMI-8226
# [31] = test system: MDA-N
# [32] = test system: T47D
# [33] = test system: DMS-114
# [34] = test system: DU-145
# [35] = test system: DMS-273
# [36] = test system: HCC 2998
# [37] = test system: SN12C
# [38] = test system: CAKI-1
# [39] = test system: OVCAR-5
# [40] = test system: NCI-H460
# [41] = test system: M19-MEL
# [42] = test system: HT-29
# [43] = test system: SF-539
# [44] = test system: OVCAR-4
# [45] = test system: NCI/ADR-RES
# [46] = test system: HOP-62
# [47] = test system: Malme-3M
# [48] = test system: IGROV-1
# [49] = test system: SK-MEL-2
# [50] = test system: Hs-578T
# [51] = test system: EKVX
# [52] = test system: SR
# [53] = test system: 786-0
# [54] = test system: SNB-19
# [55] = test system: UACC-257
# [56] = test system: NCI-H522
# [57] = test system: SF-268
# [58] = test system: A549
# [59] = test system: CCRF-CEM
# [60] = test system: A498
# [61] = test system: ACHN
# [62] = test system: HCT-15
# [63] = test system: SNB-75
# [64] = test system: SK-MEL-28
# [65] = test system: SK-MEL-5
# [66] = test system: SW-620
compound,measurement,setting,value
CC1CCC2(C(=O)O)CCC3(C)C(=CCC4C5(C)CCC(O)C(C)(C)C5CCC43C)C2C1C (stereo not drawn),GI50,[1],15.5 µM (inactive)
same,GI50,[2],3.05 µM (inactive) and 2.64 µM (inactive)
same,GI50,[3],18.5 µM (inactive) and 11.9 µM (inactive)
same,GI50,[4],6.12 µM (inactive) and 11.4 µM (inactive)
same,GI50,[5],6.75 µM (inactive) and 4.07 µM (inactive)
same,GI50,[6],9.68 µM (inactive) and 17.8 µM (inactive)
same,GI50,[7],13.3 µM (inactive)
same,GI50,[8],8.24 µM (inactive)
same,GI50,[9],12.7 µM (inactive) and 22 µM (inactive)
same,GI50,[10],2.16 µM (inactive)
same,GI50,[11],4.13 µM (inactive) and 6.59 µM (inactive)
same,GI50,[12],19.7 µM (inactive)
same,GI50,[13],7.52 µM (inactive) and 13.8 µM (inactive)
same,GI50,[14],13.8 µM (inactive) and 8.3 µM (inactive)
same,GI50,[15],19.6 µM (inactive) and 10.8 µM (inactive)
same,GI50,[16],12.5 µM (inactive)
same,GI50,[17],14.4 µM (inactive) and 7.28 µM (inactive)
same,GI50,[18],3.84 µM (inactive)
same,GI50,[19],6.53 µM (inactive)
same,GI50,[20],18.2 µM (inactive) and 15.5 µM (inactive)
same,GI50,[21],6.62 µM (inactive) and 9.29 µM (inactive)
same,GI50,[22],19.7 µM (inactive) and 11.1 µM (inactive)
same,GI50,[23],19 µM (inactive)
same,GI50,[24],3.3 µM (inactive) and 3.22 µM (inactive)
same,GI50,[25],13.7 µM (inactive) and 14.7 µM (inactive)
same,GI50,[26],18.4 µM (inactive) and 11.9 µM (inactive)
same,GI50,[27],5.86 µM (inactive)
same,GI50,[28],30.1 µM (inactive)
same,GI50,[29],15.8 µM (inactive)
same,GI50,[30],10.6 µM (inactive) and 7.1 µM (inactive)
same,GI50,[31],14.6 µM (inactive)
same,GI50,[32],14.2 µM (inactive)
same,GI50,[33],9.42 µM (inactive)
same,GI50,[34],9.16 µM (inactive)
same,GI50,[35],10.9 µM (inactive)
same,GI50,[36],11.1 µM (inactive) and 10.6 µM (inactive)
same,GI50,[37],10.3 µM (inactive) and 18 µM (inactive)
same,GI50,[38],6 µM (inactive) and 3.7 µM (inactive)
same,GI50,[39],11.1 µM (inactive) and 10.6 µM (inactive)
same,GI50,[40],12.4 µM (inactive)
same,GI50,[41],8.17 µM (inactive)
same,GI50,[42],20.7 µM (inactive) and 11 µM (inactive)
same,GI50,[43],13.4 µM (inactive) and 11 µM (inactive)
same,GI50,[44],17.3 µM (inactive) and 13.3 µM (inactive)
same,GI50,[45],14.7 µM (inactive) and 11.2 µM (inactive)
same,GI50,[46],16.5 µM (inactive) and 9.33 µM (inactive)
same,GI50,[47],15.1 µM (inactive) and 14 µM (inactive)
same,GI50,[48],13.4 µM (inactive) and 18.2 µM (inactive)
same,GI50,[49],11.2 µM (inactive) and 15.9 µM (inactive)
same,GI50,[50],8.71 µM (inactive)
same,GI50,[51],10.6 µM (inactive) and 13.8 µM (inactive)
same,GI50,[52],19.5 µM (inactive)
same,GI50,[53],4.63 µM (inactive)
same,GI50,[54],10.3 µM (inactive)
COc1ccccc1NC(=O)CSC(N)=O,GI50,[1],82.8 µM (inactive)
same,GI50,[55],62.2 µM (inactive)
same,GI50,[2],349 nM (active)
same,GI50,[3],69.3 µM (inactive)
same,GI50,[56],33.4 µM (inactive)
same,GI50,[57],53.8 µM (inactive)
same,GI50,[6],25.6 µM (inactive)
same,GI50,[7],50.4 µM (inactive)
same,GI50,[8],> 100 µM (inactive)
same,GI50,[10],45.4 µM (inactive)
same,GI50,[11],36.4 µM (inactive)
same,GI50,[58],72.6 µM (inactive)
same,GI50,[12],> 100 µM (inactive)
same,GI50,[13],57.8 µM (inactive)
same,GI50,[14],68.2 µM (inactive)
same,GI50,[15],25.8 µM (inactive)
same,GI50,[17],18.8 µM (inactive)
same,GI50,[18],46 µM (inactive)
same,GI50,[19],42.1 µM (inactive)
same,GI50,[20],> 100 µM (inactive)
same,GI50,[59],12.9 µM (inactive)
same,GI50,[21],49.5 µM (inactive)
same,GI50,[22],39.2 µM (inactive)
same,GI50,[24],38.4 µM (inactive)
same,GI50,[25],> 100 µM (inactive)
same,GI50,[26],> 100 µM (inactive)
same,GI50,[60],> 100 µM (inactive)
same,GI50,[61],42.3 µM (inactive)
same,GI50,[27],30.8 µM (inactive)
same,GI50,[62],42.8 µM
same,GI50,[30],39.4 µM (inactive)
same,GI50,[63],30 µM (inactive)
same,GI50,[33],46.2 µM (inactive)
same,GI50,[64],48.1 µM (inactive)
same,GI50,[35],34.4 µM (inactive)
same,GI50,[36],> 100 µM (inactive)
same,GI50,[37],62.2 µM (inactive)
same,GI50,[38],33.6 µM (inactive)
same,GI50,[39],> 100 µM (inactive)
same,GI50,[40],32.7 µM (inactive)
same,GI50,[41],29.2 µM (inactive)
same,GI50,[42],47.2 µM (inactive)
same,GI50,[43],34 µM (inactive)
same,GI50,[65],47.8 µM (inactive)
same,GI50,[44],> 100 µM (inactive)
same,GI50,[66],32.2 µM (inactive)
same,GI50,[46],24.7 µM (inactive)
same,GI50,[47],43 µM (inactive)
same,GI50,[48],66.5 µM (inactive)
same,GI50,[49],22.9 µM (inactive)
same,GI50,[51],60.1 µM (inactive)
same,GI50,[52],25.8 µM (inactive)
same,GI50,[53],19.1 µM (inactive)
same,GI50,[54],> 100 µM (inactive)
